Assay results taken from patent US11053205B2, “Phenazine derivatives as antimicrobial agents” (University of Florida Research Foundation, Incorporated, priority 2017, dated 2021).
pIC50: −log10 of the molar value.

Experiments:
MRSA-2 biofilms = assay: Calgary Biofilm Device (CBD) assay, MBC/MBEC; details: CBD; for MRSA-2 MBEC: biofilm eradication
MRSA BAA-1707 biofilms = assay: Calgary Biofilm Device (CBD) assay, MBC/MBEC; details: CBD, biofilm eradication
MRSE 35984 = assay: MIC, broth microdilution (CLSI); details: 16 to 18 hours at 37° C.
MRSA BAA-1707 = assay: MIC, broth microdilution (CLSI); details: 16 to 18 hours at 37° C.; 0.10 = lowest concentration tested
VRE 700221 = assay: MIC, broth microdilution (CLSI); details: 16 to 18 hours at 37° C.
MRSE 35984 biofilms = assay: Calgary Biofilm Device (CBD) assay, MBC/MBEC; details: CBD; for MRSE 35984 MBEC: biofilm eradication

| SMILES | pIC50 (HeLa cells) | MRSA BAA-1707 MBEC (MRSA BAA-1707 biofilms) | MRSE 35984 MIC (MRSE 35984) | MRSA BAA-1707 MIC (MRSA BAA-1707) | VRE 700221 MIC (VRE 700221) | further results |
| --- | --- | --- | --- | --- | --- | --- |
| Cc1ccc2nc3c(O)c(Br)cc(Br)c3nc2c1 [52A] | < 4.00 | – | – | – | – | – |
| CCc1ccc2nc3c(O)c(Br)cc(Br)c3nc2c1 [53A] | < 4.30 | – | – | – | – | – |
| CCCc1ccc2nc3c(O)c(Br)cc(Br)c3nc2c1 [54A] | < 4.30 | – | – | – | – | – |
| CC(C)(C)c1ccc2nc3c(O)c(Br)cc(Br)c3nc2c1 [55A] | < 4.00 | – | – | – | – | MRSA-2 MBEC (MRSA-2 biofilms): 3.13 µM |
| Cc1cc(C)c2nc3c(Br)cc(Br)c(O)c3nc2c1 [56A] | < 4.00 | 4.69 µM | – | – | – | – |
| Cc1cc2nc3c(O)c(Br)cc(Br)c3nc2c(C)c1C [59A] | < 4.00 | – | – | – | – | – |
| Oc1c(Br)cc(Br)c2nc3cc(Oc4ccccc4)ccc3nc12 [63A] | < 4.00 | 2.35 µM | 0.1 µM | 0.075 µM | 0.2 µM | – |
| CCN(CC)c1ccc2nc3c(O)c(Br)cc(Br)c3nc2c1Br [64A] | < 4.00 | 4.69 µM | – | – | – | – |
| Cc1ccc2nc3c(O)ccc(Br)c3nc2c1 [66A] | < 4.00 | – | – | – | – | – |
| COCCOCCOCCOCCOC(=O)Oc1c(Br)cc(Br)c2nc3cc(Cl)ccc3nc12 [77A] | – | – | – | 0.0005 µM | – | – |
| COCCOCCOCCOCCOC(=O)Oc1c(Br)cc(Br)c2nc3cc(Oc4ccccc4)ccc3nc12 [78A] | – | – | – | 0.1 µM | – | – |
| CC1=C(C)C(=O)C(COC(=O)OCOc2c(Br)cc(Br)c3nc4ccccc4nc23)=C(C)C1=O [86A] | – | 75 µM | – | 2.35 µM | – | – |
| CC1=C(C)C(=O)C(COC(=O)OCOc2c(Br)cc(Br)c3nc4cc(Cl)ccc4nc23)=C(C)C1=O [87A] | < 4.00 | 12.5 µM | – | 0.15 µM | – | Hemolysis at 200 μM (human red blood cells): 2.7% |
| N#CC(C#N)=NNc1cccc(Cl)c1 [CCCP, reference compound] | – | – | – | – | – | MRSA-2 MBEC (MRSA-2 biofilms): 1000 µM; MRSA-2 MBC (MRSA-2 biofilms; planktonic killing): 31.3 µM; MRSE 35984 MBEC (MRSE 35984 biofilms): 93.8 µM; MRSE 35984 MBC (MRSE 35984 biofilms; planktonic killing): 31.3 µM |
| OC[C@H]1O[C@@H](Oc2c(Br)cc(Br)c3nc4ccccc4nc23)[C@H](O)[C@@H](O)[C@@H]1O [Compound 28] | – | – | >100 µM | >100 µM | >100 µM | – |
| COCCOCCOCCOC(=O)OCOc1c(Br)cc(Br)c2nc3ccccc3nc12 [Compound 30] | – | – | >100 µM | >100 µM | >100 µM | – |
| CS(=O)(=O)N1CCN(C(=O)Oc2c(Br)cc(Br)c3nc4ccccc4nc23)C1=O [Compound 31] | – | 75 µM | 0.78 µM | – | 3.13 µM | – |
| Oc1c(Br)cc(Br)c2nc3cc(Oc4ccccc4)ccc3nc12 [Compound 34] | – | 2.35 µM | 0.1 µM | 0.1 µM | 0.2 µM | – |
| CCN(CC)c1ccc2nc3c(O)c(Br)cc(Br)c3nc2c1Br [Compound 35] | – | 4.69 µM | 0.1 µM | 0.15 µM | 0.30 µM | MRSE 35984 MBEC (MRSE 35984 biofilms): 1.56 µM |
| CCc1cccc2nc3c(Br)cc(Br)c(O)c3nc12 [Compound 37] | – | – | >100 µM | >100 µM | >100 µM | – |
| CCOC(=O)c1ccc2nc3c(O)c(Br)cc(Br)c3nc2c1 [Compound 38] | – | – | – | >100 µM | – | – |
